From patent US5346910A (priority 1992, dated 1994)

Experiments:
[1] = biological target: muscarinic cholinergic receptor (rat brain cerebral cortex homogenate); type: binding; conditions: 0.25 nM 3H-QNB, 25° C., 120 minutes
[2] = biological target: high affinity agonist conformation of the muscarinic cholinergic receptor (rat brain cerebral cortex homogenate); assay: [3H]-Cis-methyldioxolane (3H-CD) binding assay (high affinity); conditions: 1.0 nM 3H-CD, 25° C., 120 minutes
SDAT patients = conditions: compared to physostigmine; cited from earlier work
aged monkey = conditions: aged monkeys; cited from earlier work

CN(C)CC#CCN1C(=O)C=CC1=O [1-[4-(Dimethylamino)-2-butynyl]-1H-pyrrole-2,5-dione]
Ki [1]: 1740 nM | Ki [2]: 1480 nM

CSC1CC(=O)N(CC#CCN(C)C)C1=O (centres unmarked) [1-[4-(Dimethylamino)-2-butynyl]-3-(methylthio)-2,5-pyrrolidinedione]
Ki [1]: > 100000 nM | Ki [2]: 1600 nM

CC1=CC(=O)N(CC#CCN(C)C)C1=O [1-[4-(Dimethylamino)-2-butynyl]-3-methyl-1H-pyrrole-2,5-dione]
Ki [1]: 1400 nM | Ki [2]: 3400 nM

CSC1CC(=O)N(CC#CCN2CCCC2)C1=O (centres unmarked) [3-(Methylthio)-1-[4-(1-pyrrolidinyl)-2-butynyl]-2,5-pyrrolidinedione]
Ki [1]: 2200 nM | Ki [2]: 1780 nM

CC1=CC(=O)N(CC#CCN2CCCC2)C1=O [3-Methyl-1-[4-(1-pyrrolidinyl)-2-butynyl]-1H-pyrrole-2,5-dione]
Ki [1]: 200 nM | Ki [2]: 530 nM

C[N+](C)(C)CC#CCN1C(=O)C=CC1=O [4-(2,5-Dihydro-2,5-dioxo-1H-pyrrol-1-yl)-N,N,N-trimethyl-2-butyne-1-aminium iodide]
Ki [1]: 11000 nM | Ki [2]: 290 nM

CC1=CC(=O)N(CC#CC[N+](C)(C)C)C1=O [4-(2,5-Dihydro-3-methyl-2,5-dioxo-1H-pyrrol-1-yl)-N,N,N-trimethyl-2-butyne-1-aminium iodide]
Ki [1]: 2300 nM | Ki [2]: 560 nM

COC(=O)C1=CCCN(C)C1 [arecoline]
improvement in SDAT patients (SDAT patients): more consistent improvement | performance in aged monkey model of SDAT (aged monkey): significant improvement in performance

O=C1CCCN1CC#CCN1CCCC1 [oxotremorine]
performance in aged monkey model of SDAT (aged monkey): significant improvement in performance
